According to patent EP4682173A1, “METHOD FOR PRODUCING RADIOLABELED ANTIBODY, RADIOLABELED ANTIBODY, AND RADIOACTIVE MEDICINE” (Kagoshima University, priority 2023, dated 2024):

System: EGFR
Experiment: Test Example 7: antigen binding activity by in vitro ARG (^89Zr-labeled Pmab)
Set-up: species or system human
Settings: day after production

## Comparative Example 3: ^89Zr-panitumumab conjugate (monovalent) by the CCAP method
  binding activity for EGFR: confirmed
